These results are taken from patent publication US10429397B2 (priority 2015, dated 2019).

The data set concerns HeLa cells. Description: Fluorescence microscopy assay of cell permeability. Format: cell-based. The note with it: 5 mM, 1 hour, streptavidin-Cy5. As to the method:
The cells were then incubated in serum free media for 2 hours, followed by incubation with APB (5 mM) in serum free media (500 μL) for 1 hour. […] Cells were incubate with paraformaldehyde (4%, 500 μL) for 20 minutes at room temperature, then washed with 1×PBS (500 μL) three times. […] Streptavidin Cy5 (10 ug/mL) in blocking buffer (50 μL) was added and incubated with cells for 30 minutes. […] Cells were incubated with DAPI (100 μg/mL) for 5 minutes, followed by washing with 1×PBS (500 μL) 3 times each for 5 min. The cover slips were washed in water then installed on a glass slide containing Mowiol mounting solution (50 μL, Sigma Aldrich) saturated with DABCO (Sigma Aldrich). The slide was incubate at 31° C. for 30 minutes, and then kept at 4° C. until microscopy. Fluorescence photos were generated on an Olympus fluorescence microscope using laser wavelengths corresponding to DAPI (350 nm) and Cy5 (650 nm). DAPI photos were generated at 10 ms and Cy5 at 200 ms. Merged images were created using Adobe Photoshop.

As to `Nc1ncnc2c1ncn2[C@@H]1O[C@H](COP(=O)(O)OP(=O)(O)OP(=O)(O)O)[C@@H](O)[C@H]1O` [ATP, adenosine-5′-triphosphate, reference compound], the “biotin fluorescence signal in cells (cell permeability)” value was “no biotin signal”.
